Reference: article PMC6703555 (Journal of medicinal chemistry, 2018)

Legend:
cancer cells = conditions: 2 hour exposure; cited from earlier work
in vitro = conditions: human, plasma, pH 7.5, half-life, 50% pooled human plasma in PBS
[1] = human plasma
Vγ9Vδ2 T cells = conditions: 72 hour compound exposure, PBMCs; cited from earlier work
B30.2 domain of BTN3A1 = conditions: ITC; cited from earlier work

Row | SMILES | EC50 (cancer cells) | half-life (in vitro) | hydrolysis after two hours [1] | EC50 (Vγ9Vδ2 T cells) | binding to the B30.2 domain of BTN3A1 (B30.2 domain of BTN3A1)
1 | C/C(=C\CCP(=O)(OCOC(=O)C(C)(C)C)OCOC(=O)C(C)(C)C)CO [Compound 2] | 1.2 nM | ~8 min | more than 95% |  | 
2 | C/C(=C\CCP(=O)([O-])[O-])CO.[Na+].[Na+] [Compound 10] |  |  |  | 4000 nM | does bind
3 | COP(=O)(CC/C=C(\C)CO)OC [Compound 11] |  |  |  | > 10000 nM | 
4 | C/C(=C\COP(=O)(O)OP(=O)(O)O)CO [HMBPP, (E)-4-hydroxy-3-methyl-but-2-enyl diphosphate] | 19 nM |  |  |  | 
